The first test concerns the target BTK (Homo sapiens, UniProt Q06187). Nature of the test: biochemical. The note with it: read-out: BTK inhibition (%).
Sequence of BTK (Q06187 402-655 limits assumed): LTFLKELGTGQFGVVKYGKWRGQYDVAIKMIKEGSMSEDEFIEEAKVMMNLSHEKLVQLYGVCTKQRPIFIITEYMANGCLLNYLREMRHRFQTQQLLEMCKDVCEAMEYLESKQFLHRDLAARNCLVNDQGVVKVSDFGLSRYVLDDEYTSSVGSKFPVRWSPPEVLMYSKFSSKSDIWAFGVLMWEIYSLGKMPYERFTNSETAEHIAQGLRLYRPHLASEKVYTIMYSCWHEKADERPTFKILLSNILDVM
For orientation: inhibition means the drop in the measured response relative to a control, in per cent. Regarding `CC(=O)O[C@H]1[C@H]2[C@@H](OC(=O)Cc3ccccc3)[C@@H](C)C[C@]2(OC(C)=O)C(=O)/C(C)=C/[C@@H]2[C@H](CC[C@@]13CO3)C2(C)C` [PCM-0215129], the inhibition at 10 µM is -14%.
`Cc1ccc2c(c1)[C@]13CCCC[C@@H]1[C@H](C2)N(C)CC3` [PCM-0216574]: the inhibition at 10 µM is 12.8%.
On the same count and under the same terms, then `C[C@]12CC[C@H]3[C@@H](CCC4=CC(=O)C=C[C@@]43C)[C@@H]1CC[C@@H]2O` [PCM-0216069], with -13.1%.

Staying with this test, now noted: read-out: BTK inhibition (%), 0.75 uM BTK, […] probe 3l, 15 min preincubation.
Consider `C=C(C)[C@@H]1CC[C@]2(C(=O)O)CC[C@]3(C)[C@H](CC[C@@H]4[C@@]5(C)CC[C@H](O)[C@@](C)(CO)[C@@H]5CC[C@]43C)[C@@H]12` [PCM-0216604], for which the inhibition at 10 µM stood at 26.3%.
With `COc1cc(N)c(Cl)cc1C(=O)N[C@H]1CCN(CCCOc2ccc(F)cc2)C[C@H]1OC` [PCM-0086006], the inhibition at 10 µM was 13.2%.
Same read-out and setting: then `COC1=CC(=O)c2ccccc2C1=O` [PCM-0214886], with 85.6%; and `OC[C@@H](O)CN1CCN(c2ccccc2)CC1` [PCM-0214752], with -22.8%; and `COc1cc2oc(=O)ccc2cc1O` [PCM-0216502], with -10%.
The same measure, in the same setting: with `COc1ccc(-c2cc(=O)c3c(O)cc(O[C@@H]4O[C@H](CO[C@@H]5O[C@@H](C)[C@H](O)[C@@H](O)[C@H]5O)[C@@H](O)[C@H](O)[C@H]4O)cc3o2)cc1O` [PCM-0087491] the figure was -5.1%; with `COC1(c2sc3c(N4CCOCC4)nc(-c4cnc(N)nc4)nc3c2C)COC1` [PCM-0215460], 33.8%; with `CC1(C)CC[C@]2(C(=O)O)CCC3=C(CC[C@@H]4[C@@]5(C)C[C@H](O)[C@H](O)[C@@](C)(C(=O)O)[C@@H]5CC[C@@]34C)[C@@H]2C1` [PCM-0216490], 10.8%.
On the same count and under the same terms, with `COc1c(O)cc2c(c1O)C(=O)c1c(cc(C)c(O)c1OC)C2=O` [PCM-0216431] the figure was 28.6%; with `CN(C)c1ccc2nc3c(C(=O)O)cc(=O)c(O)c-3oc2c1` [PCM-0216583], 88%; with `C=CCc1ccc(O)c(-c2cc(CC=C)ccc2O)c1` [PCM-0094865], 16.3%.
`Nc1ccc2ncnc(NCCc3ccc(Oc4ccccc4)cc3)c2c1` [PCM-0095674]: the inhibition at 10 µM was -4.1%.
`CN(C[C@@H]1COCCO1)S(=O)(=O)Nc1ccc2ccc3ncc(-c4cnn(C)c4)cc3c(=O)c2c1` [PCM-0095338]: the inhibition at 10 µM worked out at 33.1%.
Regarding `CCCCCC1=C(C)CCC1=O` [PCM-0216102], the inhibition at 10 µM is -16.2%.
Take `C=CC(=O)N1CC/C(=C\c2ccc(F)c([N+](=O)[O-])c2)C(=O)/C(=C/c2ccc(F)c([N+](=O)[O-])c2)C1` [PCM-0215820]: the inhibition at 10 µM stood at 31.7%.
Same read-out and setting: with `C=C[C@@H]1CNC(=S)O1` [PCM-0216374] the figure was -6.2%; with `CNC(=O)c1cnn(-c2nc(N)c3ncn([C@@H]4O[C@H](CO)[C@@H](O)[C@H]4O)c3n2)c1` [PCM-0216236], 5.4%; with `COc1ccc(-c2cc3c(C)nc(N)nc3n(C3CCC(OCCO)CC3)c2=O)cn1` (stereo not shown) [PCM-0095467], -9.7%.
Same read-out and setting: then `CC(C)OC(=O)OCOP(=O)(CO[C@H](C)Cn1cnc2c(N)ncnc21)OCOC(=O)OC(C)C` [PCM-0214620], with -14.8%; and `NC(=O)CC[C@H](N)C(=O)O` [PCM-0065292], with 17.9%; and `Nc1nc2c(ncn2[C@@H]2O[C@H](CO)[C@@H](O)[C@H]2O)c(=O)[nH]1` [PCM-0094848], with 0%.
On the same count and under the same terms, then `Cc1c[nH]c2nc(Nc3ccc(N4CCN(C)CC4)c(F)c3)nc(-c3cccc(CC#N)c3)c12` [PCM-0215633], with 92.4%; and `Cn1c(O)c(C2=c3ccccc3=NC2=O)c2ccccc21` [PCM-0216129], with -17%.
Take `CN(C)C(=O)C(CCN1CCC(O)(c2ccc(Cl)cc2)CC1)(c1ccccc1)c1ccccc1` [PCM-0065584]: the inhibition at 10 µM turned out to be 18.7%.
Same read-out and setting: with `Cc1onc(-c2ccccc2)c1C(=O)N[C@@H]1C(=O)N2[C@@H]1SC(C)(C)[C@@H]2C(=O)O` [PCM-0215187] the figure was 21.3%.
Same read-out and setting: with `Cn1ncc(Cl)c1-c1cc(C(=O)N[C@H](CN)Cc2ccc(F)c(F)c2)oc1Cl` [PCM-0215609] the figure was -7.6%; with `COCCn1c2c([n+](Cc3cnccn3)c1C)C(=O)c1ccccc1C2=O` [PCM-0094937], -17.9%.
On the same count and under the same terms, with `C=C1[C@@H]2CC[C@@H](C2)[C@]1(C)CC/C=C(\C)CO` [PCM-0216479] the figure was 0%; with `C#C[C@]1(O)CC[C@H]2[C@@H]3CCc4cc(O)ccc4[C@H]3CC[C@@]21C` [PCM-0086269], 26.5%.
Consider `Cc1cn([C@H]2O[C@@H](CO)[C@H](O)[C@H]2F)c(=O)[nH]c1=O` [PCM-0214737], for which the inhibition at 10 µM worked out at 23.3%.
The same measure, in the same setting: with `CC(OC(=O)OC1CCCCC1)OC(=O)C1=C(CSc2nnnn2CCN(C)C)CS[C@@H]2[C@H](NC(=O)Cc3csc(N)n3)C(=O)N12` (stereo partly shown) [PCM-0216590] the figure was 4.6%; with `O=Cc1ccccc1O[C@@H]1O[C@H](CO)[C@@H](O)[C@H](O)[C@H]1O` [PCM-0215148], -15.6%.
The same measure, in the same setting: with `O=S(=O)(O)CCSSCCS(=O)(=O)O` [PCM-0090667] the figure was -8.6%; with `CC(=O)Nc1cccc(-n2c(=O)n(C3CC3)c(=O)c3c(Nc4ccc(I)cc4F)n(C)c(=O)c(C)c32)c1` [PCM-0095350], -10.3%; with `Nc1nc(N)nc(N)n1` [PCM-0216468], 13.9%.
As for `CC(C)=CC(=O)O[C@H]1Cc2cc3ccc(=O)oc3cc2OC1(C)C` [PCM-0216507], the inhibition at 10 µM stood at 16.2%.
Same read-out and setting: with `CN(C)CCCC1(c2ccc(F)cc2)OCc2cc(C#N)ccc21` (stereo not shown) [PCM-0064474] the figure was -14.8%.
As to `COc1cc(O)cc(O)c1C(=O)C=Cc1ccccc1` [PCM-0214685], the inhibition at 10 µM is 12.5%.
The same measure, in the same setting: with `Cc1sc2c(c1C)C(c1ccc(Cl)cc1)=N[C@@H](CC(=O)Nc1ccc(O)cc1)c1nnc(C)n1-2` [PCM-0095727] the figure was 3.1%; with `C=C[C@H]1CN2CC[C@]3(C(=O)Nc4ccccc43)[C@@H]2C[C@@H]1/C(=C\OC)C(=O)OC` [PCM-0216538], 6.2%.
`COc1ccc(C2=N[C@H](c3ccc(Cl)cc3)[C@H](c3ccc(Cl)cc3)N2C(=O)N2CCNC(=O)C2)c(OC(C)C)c1` [PCM-0215386]: the inhibition at 10 µM is -27.8%.
For `C/C=C(/C)C(=O)O` [PCM-0215002], the inhibition at 10 µM is 14.5%.
The same measure, in the same setting: with `CCC1=C(C)CN(C(=O)NCCc2ccc(S(=O)(=O)NC(=O)NC3CCC(C)CC3)cc2)C1=O` (stereo not shown) [PCM-0086384] the figure was 8.6%; with `Cc1c(NC(=O)OC[C@@H]2COCCN2)cn2ncnc(Nc3ccc4c(cnn4Cc4cccc(F)c4)c3)c12` [PCM-0094984], 32.4%; with `CCc1c(C(=O)NCCc2ccc(N3CCCCC3)cc2)[nH]c2ccc(Cl)cc12` [PCM-0214697], 2.3%.
The same measure, in the same setting: with `CCN1C(=O)CNc2ncc(-c3ccc(-c4ncn[nH]4)nc3C)nc21` [PCM-0215743] the figure was 11.7%; with `O=C(O)CNC(=O)c1ccccc1` [PCM-0216220], 20.8%.
In the case of `C[N+]1(C)C2CCC1CC(OC(=O)C(O)c1ccccc1)C2` (stereo not shown) [PCM-0095577], the inhibition at 10 µM was -9.3%.
As to `N#Cc1cc(-c2n[nH]c(-c3ccncc3)n2)ccn1` [PCM-0214916], the inhibition at 10 µM was -18.7%.
The same measure, in the same setting: then `CCOC(=O)Nc1ccc(NCc2ccc(F)cc2)nc1N` [PCM-0065288], with -8.6%.
Still for that read-out and setting: with `CC(C)=CC(O)C/C(C)=C/COc1c2ccoc2cc2oc(=O)ccc12` (stereo not shown) [PCM-0216460] the figure was -45.6%.
On the same count and under the same terms, then `Cc1ccc(S(=O)(=O)Nc2nc3ccccc3nc2Nc2ccc3nsnc3c2)cc1` [PCM-0094918], with -1.7%; and `CO[C@@H]1[C@@H](O[C@@H]2O[C@H](C)[C@@H](O[C@H]3C[C@@](C)(O)[C@@H](O)[C@H](C)O3)[C@H](N(C)C)[C@H]2O)[C@@H](CC=O)C[C@@H](C)[C@@H](O)/C=C/C=C/C[C@@H](C)OC(=O)C[C@H]1O` [PCM-0214884], with 6.2%.
Regarding `C[C@@H]1COC(Nc2ccc3ncnc(Nc4ccc(OCc5nccs5)c(Cl)c4)c3c2)=N1` [PCM-0095513], the inhibition at 10 µM stood at 17.2%.
Still for that read-out and setting: with `CCCCC[C@H](O)/C=C/[C@H]1[C@H](O)CC(=O)[C@@H]1C/C=C\CCCC(=O)O` [PCM-0215185] the figure was -11.7%; with `O=C(O)[C@H]1O[C@@H](Oc2cc3oc(-c4ccccc4)cc(=O)c3c(O)c2O)[C@H](O)[C@@H](O)[C@@H]1O` [PCM-0094823], 14.8%; with `C[C@@H]1O[C@@H](O[C@H]2[C@H](O[C@H]3C[C@]4(C)[C@H](C[C@@H](O)[C@@H]5[C@@H]([C@]6(C)CC[C@H](C(C)(C)O)O6)CC[C@]54C)[C@@]4(C)CC[C@H](O)C(C)(C)[C@H]34)O[C@H](CO)[C@@H](O)[C@@H]2O)[C@H](O)[C@H](O)[C@H]1O` [PCM-0216458], 1.5%.
Still for that read-out and setting: with `COC(=O)N[C@H](C(=O)N[C@@H](Cc1ccccc1)[C@@H](O)CN(Cc1ccc(-c2ccccn2)cc1)NC(=O)[C@@H](NC(=O)OC)C(C)(C)C)C(C)(C)C` [PCM-0095133] the figure was -10.9%.
Regarding `O=C(Nc1cccc(Nc2ncc(Br)c(NCCc3cnc[nH]3)n2)c1)N1CCCC1` [PCM-0095062], the inhibition at 10 µM came out at 85.5%.
Still for that read-out and setting: then `COC(=O)C1=CO[C@@H](O[C@@H]2O[C@H](CO)[C@@H](O)[C@H](O)[C@H]2O)[C@@H]2[C@H](C)O[C@@H](O)C[C@H]12` [PCM-0216177], with -19.3%; and `O=C(O)CC1CC(c2ccccc2)=NO1` (stereo not shown) [PCM-0215292], with -2.1%; and `CN1CCC(=C2c3ccccc3CC(=O)c3sccc32)CC1` [PCM-0065580], with 10.3%.
The same measure, in the same setting: with `CC[C@H](c1ccc(O)cc1)[C@@H](CC)c1ccc(O)cc1` [PCM-0095223] the figure was -11.7%; with `CNC(=O)c1ccccc1Nc1cc(Nc2ccc(N3CCOCC3)cc2OC)ncc1C(F)(F)F` [PCM-0215412], 63.4%.
